In patent publication US20250197864A1, “LNCRNA TRANSCRIPTS IN MELANOMAGENESIS” (The Regents of the University of California, priority 2021, published 2025):

Test system: gene expression in D04 melanoma cells
Assay: RNA-Seq differential expression analysis (DESeq2)
Type: cell-based, human
Procedure: Total RNA was isolated using the RNeasy mini Kit (QIAGEN) following the manufacturer's protocol. Quality check for extracted RNA was done using 2100 Bioanalyzer (Agilent Technologies, USA) or Tapestation System (Agilent Technologies, USA). […] For samples used for identification of MAPK-responsive lncRNAs, paired-end, 101-bp sequencing was performed by Centrillion Genomic Services (Centrillion Biosciences, USA) on an Illumina HiSeq 2000. For DE gene analysis of ASO-transfected D04 samples, paired-end, 2×150-bp sequencing was performed by Genewiz (USA) on a Illumina HiSeq.
Sequence reads were aligned to the human genome (hg19) using TopHat (Version 2.0.11).
Differential expression (DE) analysis was done using DESeq2. Differentially expressed genes were defined by more than 1.5-fold changes (log 2 >0.58 or <−0.58) in expression with FDR<0.05. GO term analysis was done using DAVID Functional Annotation Clustering analysis.
To examine the biomolecular changes upon TRASH-inhibition in melanoma, D04 cells were treated with TRASH-ASOs (SEQ ID NO:15) and Control-ASOs and RNA was extracted and used for RNA-Seq. […] These GO terms consisted of genes encoding growth factors, tyrosine kinases, G protein coupled receptor subunits, and collagen subunits. Scatter plot diagram showing differential gene expression after TRASH-ASO treatment compared to Control-ASO treatment. (cut-off for significance was adjusted p-value <0.05). Data was obtained from RNA-Seq of D04 melanoma cells, treatment period was three days. (FIG. 5c)

Sequence: GACTGGAGATAATTAA (gapmer, pattern not given here) [SEQ ID NO: 15, GapmeR ASO targeting AC004540.4 (TRASH), exon region of both isoforms; used for in vitro experiments]
- log2FoldChange (LINC00689 (ENSG00000231419)): 1.29
- log2FoldChange (LINC00707 (ENSG00000238266)): 1.936
- log2FoldChange (LINC00879 (ENSG00000239589)): −0.6051
- log2FoldChange (LINC00957 (ENSG00000235314)): 1.503
- log2FoldChange (LINC00973 (ENSG00000240476)): 1.339
- log2FoldChange (LINC01204 (ENSG00000229563)): 1.543
- log2FoldChange (LINC01444 (ENSG00000264301)): 1.479
- log2FoldChange (LINC01468 (ENSG00000231131)): 1.433
- log2FoldChange (LINC01505 (ENSG00000234323)): −0.6329
- log2FoldChange (LINC01583 (ENSG00000259518)): 1.348
- log2FoldChange (LINC01638 (ENSG00000233521)): 1.544
- log2FoldChange (LINC01770 (ENSG00000225285)): −0.5999
- log2FoldChange (LINC02009 (ENSG00000283646)): 2.6101
- log2FoldChange (LINC02109 (ENSG00000259786)): −0.684
- log2FoldChange (LINC02302 (ENSG00000258998)): 1.424
- log2FoldChange (LINC02506 (ENSG00000251129)): −0.687
- log2FoldChange (LINC02551 (ENSG00000254842)): 1.274
- log2FoldChange (LOXL2 (ENSG00000134013)): −0.5824
- log2FoldChange (LOXL3 (ENSG00000115318)): −0.6239
- log2FoldChange (LPAR1 (ENSG00000198121)): −0.683
- log2FoldChange (LRRC2 (ENSG00000163827)): 1.394
- log2FoldChange (LRRC17 (ENSG00000128606)): −0.6716
- log2FoldChange (LRRK1 (ENSG00000154237)): −0.6611
- log2FoldChange (MACROD2 (ENSG00000172264)): −0.705
- log2FoldChange (MAML2 (ENSG00000184384)): −0.6085
- log2FoldChange (MAP3K3 (ENSG00000198909)): −0.63
- log2FoldChange (MAP3K7CL (ENSG00000156265)): 1.53
- log2FoldChange (MAP7D2 (ENSG00000184368)): 1.513
- log2FoldChange (MATN1 (ENSG00000162510)): 1.294
- log2FoldChange (MCF2L (ENSG00000126217)): 3.367
- log2FoldChange (MECR (ENSG00000116353)): −0.6676
- log2FoldChange (MEGF9 (ENSG00000106780)): −0.634
- log2FoldChange (MEIS1 (ENSG00000143995)): −0.6955
- log2FoldChange (MLLT1 (ENSG00000130382)): −0.682
- log2FoldChange (MMP3 (ENSG00000149968)): 1.815
- log2FoldChange (MPP4 (ENSG00000082126)): 1.479
- log2FoldChange (MRGPRX4 (ENSG00000179817)): 1.367
- log2FoldChange (MSANTD2 (ENSG00000120458)): −0.6954
- log2FoldChange (MUC4 (ENSG00000145113)): 2.706
- log2FoldChange (MVB12B (ENSG00000196814)): −0.6767
- log2FoldChange (MYBPH (ENSG00000133055)): −0.6322
- log2FoldChange (MYCT1 (ENSG00000120279)): 3.863
- log2FoldChange (MYH16 (ENSG00000002079)): 1.514
- log2FoldChange (MYOCD (ENSG00000141052)): −0.6639
- log2FoldChange (NA (ENSG00000170647)): −0.6428
- log2FoldChange (NAP1L3 (ENSG00000186310)): 1.339
- log2FoldChange (NBEA (ENSG00000172915)): −0.6249
- log2FoldChange (NBEAP1 (ENSG00000258590)): 1.338
- log2FoldChange (NCALD (ENSG00000104490)): −0.6411
- log2FoldChange (NCAM1 (ENSG00000149294)): −0.6126
- log2FoldChange (NCKAP5L (ENSG00000167566)): −0.6233
- log2FoldChange (NES (ENSG00000132688)): −0.6119
- log2FoldChange (NLRC3 (ENSG00000167984)): 1.713
- log2FoldChange (NLRP1 (ENSG00000091592)): −0.7071
- log2FoldChange (NLRP3 (ENSG00000162711)): 2.515
- log2FoldChange (NLRP5 (ENSG00000171487)): 6.997
- log2FoldChange (NLRP10 (ENSG00000182261)): 1.584
- log2FoldChange (NOSTRIN (ENSG00000163072)): −0.6677
- log2FoldChange (NR2F1 (ENSG00000175745)): −0.6433
- log2FoldChange (NR2F1-AS1 (ENSG00000237187)): −0.5814
- log2FoldChange (OLFML2A (ENSG00000185585)): −0.6037
- log2FoldChange (ONECUT2 (ENSG00000119547)): 1.306
- log2FoldChange (OPRK1 (ENSG00000082556)): 1.22
- log2FoldChange (OVAAL (ENSG00000236719)): 1.572
- log2FoldChange (P2RX6 (ENSG00000099957)): −0.6686
- log2FoldChange (P2RX7 (ENSG00000089041)): −0.5889
- log2FoldChange (PADI1 (ENSG00000142623)): 2.566
- log2FoldChange (PADI3 (ENSG00000142619)): 1.708
- log2FoldChange (PAPPA (ENSG00000182752)): −0.6776
- log2FoldChange (PCDH12 (ENSG00000113555)): 1.386
- log2FoldChange (PCDHB15 (ENSG00000113248)): −0.6069
- log2FoldChange (PDE2A (ENSG00000186642)): 1.553
- log2FoldChange (PDE8A (ENSG00000073417)): −0.6263
- log2FoldChange (PEAR1 (ENSG00000187800)): 1.726
- log2FoldChange (PGM5P2 (ENSG00000277778)): 1.447
- log2FoldChange (PIGR (ENSG00000162896)): 1.274
- log2FoldChange (PIWIL2 (ENSG00000197181)): 1.787
- log2FoldChange (PKHD1L1 (ENSG00000205038)): 1.46
- log2FoldChange (PKIA (ENSG00000171033)): −0.6985
- log2FoldChange (PLA2G7 (ENSG00000146070)): 1.312
- log2FoldChange (PLAT (ENSG00000104368)): −0.6194
- log2FoldChange (PLCD4 (ENSG00000115556)): −0.6812
- log2FoldChange (PLCL1 (ENSG00000115896)): −0.6782
- log2FoldChange (PLCXD2 (ENSG00000240891)): 1.882
- log2FoldChange (PLEKHA2 (ENSG00000169499)): −0.6601
- log2FoldChange (PLIN4 (ENSG00000167676)): −0.6819
- log2FoldChange (POU2F3 (ENSG00000137709)): 1.244
